Data reported in patent publication US20070112043A1, “Acylated and non-acylated imidazo[2,1-b]-1,3,4,-thiadiazole-2-sulfonamides, and uses thereof” (priority 2003, published 2007).
≈ marks a conversion by molar mass, not a printed value. Where “and” joins values, the source holds several entries; their conditions need not be identical. Equal entries are not always repeated. Entries after “also recorded” stand apart in the source; their conditions may differ. Where two headings read alike, the source gives them in different places. Each block holds one compound with its values, some of them ahead of it.

Key:
MDAMB231 (breast) = assay: Clonogenic assay MDAMB231; format: cell-based; conditions: compound 24 hours, colonies counted after 7-10 days, read-out: ED50 (the source's name)
Method: (§1) In this paradigm, Du145 prostate, HCT116 colon, 15N Neuroblastoma, IMR32 Neuroblastoma, Daoy Medulloblastoma, and MDAMB231 breast cells are individually plated and allowed to proliferate for 48 hours. Compound is added to the culture and left on for 24 hours, at which time both compound and dead cells are washed off the plate. Fresh media is added and the cells are allowed to grow for an additional 7-10 days. The remaining healthy cells reproduce and formed localized colonies. These colonies are counted and EC50 values are determined relative to non-treated controls.
(§2) Du145 prostate, HCT116 colon, 15N Neuroblastoma, IMR32 Neuroblastoma, Daoy Medulloblastoma, and MDAMB231 breast cells were plated in 6 well plates and allowed to grow for 5 days._Cells were exposed to compound for 24 hours, the culture media was removed and replaced with fresh media. The cells were kept in cultured for 7-10 days after which colonies were counted and EC50 values were determined relative to non-treated controls.

Daoy (medulloblastoma) = assay: Clonogenic assay Daoy; format: cell-based, human; conditions: compound 24 hours, colonies counted after 7-10 days, read-out: ED50 (the source's name)
Method: as §1, §2

15 N (neuroblastoma) = assay: Clonogenic assay 15N; format: cell-based; conditions: compound 24 hours, colonies counted after 7-10 days, read-out: ED50 (the source's name)
Method: as §1, §2

SCG neurons = conditions: cited from earlier work
15N neuroblastoma cells = assay: Alamar blue viability assay, 15N neuroblastoma; format: cell-based; conditions: for IC50: cellular viability after 48 hours, compound dissolved in DMSO
Method: In order to investigate the anti-cancer potential of compounds represented by formula I-a, 15N neuroblastoma cells lines were treated with compound and assayed for cellular viability after 48 hours. The cellular viability of 15N neuroblastomas treated with compounds 1, 5, 6, 11, and 13 (dissolved in DMSO) are summarized in Table 5 (see Compound 152).
Compounds were tested for anti-cancer properties using the Alamar blue viability assay. Daoy human medulloblastoma cells of 15N neuroblastoma cells were plated at a density of 5000 cells per well of a 96 well plate and cultured in RPMI media supplemented with antibiotics and 5% fetal bovine serum. Cells in culture were incubated with compound for 48 hours after which time Alamar blue was added to the culture media. After 4 hours media was transferred to opaque white plates and fluorescence of transformed alamar blue was measured at excitation 535/emission 595).

HCT116 (colon) = assay: Clonogenic assay HCT116; format: cell-based; conditions: compound 24 hours, colonies counted after 7-10 days, read-out: ED50 (the source's name)
Method: as §1, §2

Microsomal stability = format: in vitro ADME
Du145 (prostate) = assay: Clonogenic assay Du145; format: cell-based; conditions: compound 24 hours, colonies counted after 7-10 days, read-out: ED50 (the source's name)
Method: as §1, §2

[1] = tested on: motor neurons found in layer V of the cortex; conditions: drug concentration 1 μM; malonate; P1 rat motor cortex slices; cited from earlier work
IMR32 (neuroblastoma) = assay: Clonogenic assay IMR32; format: cell-based; conditions: compound 24 hours, colonies counted after 7-10 days, read-out: ED50 (the source's name)
Method: as §1, §2

pH of formulation = format: physicochemical; conditions: PBS/HPCD (25:75) solution
Source text: (§3) This is illustrated for compound 15 in Table 7.

log P = format: physicochemical
[2] = Solubility in water and formulations; conditions: for Solubility 10 wt/vol % HPCD water: Na salts in aqueous 10 wt/vol % HPCD
Method: Alternatively, the sodium salt can be prepared in situ by dissolving the free acid in phosphate buffered saline (PBS) that has been buffered to a pH of 7.4. The solubility and stability of these solutions can be improved by the use of an aqueous soluble co-solvent such as, but not limited to HPCD. This solubility can be further improved by the addition of surfactants such as PEG 400. In general, the free acid is suspended in 10 wt/vol % HPDC (10 g dissolved in 100 mL water) and treated with 0.5M PBS (pH 7.4) such that the volumes are in a ratio of 75:25.

[3] = Conversion to primary sulfonamide in liver microsomes; format: in vitro ADME; conditions: after 60 minutes
Method: (§4) Compound 15 is converted to compound 1 in the presence of liver microsomes using the procedure described by Cresteil, T., et al. (Cresteil, T., et al. Am. Soc. Pharm. Exper. Therapeutics, 2002, 30, 438-445). Upwards of 50% conversion is observed after 60 minutes. When incubated with rat primary hepatocytes, the conversion of compounds 15, 37, and 44 to their respective primary sulfonamides, 1, 11, and 13, is observed.

[4] = Stability of solutions/formulations; format: physicochemical; conditions: for Stability of HPCD formulation: 10 wt/vol % HPCD, room temperature
Source text: as §3

[5] = Conversion to primary sulfonamide in rat primary hepatocytes; format: in vitro ADME; conditions: 90 minutes
Method: as §4

[6] = Pharmacokinetics and in vivo conversion of N-acylsulfonamides in rats (SC); design: species or system rat; conditions: subcutaneously, 10 mg/mL
Method: When administered to rats subcutaneously, compound 15 (10 mg/mL) is well distributed (Cmax=20 μg/mL in plasma). Conversion of compound 15 to 1 is observed with plasma levels of 1 reaching a Cmax of 0.5-1 μg/mL. Conversion of compound 16 to compound 1 is observed with plasma levels of 1 reaching a Cmax of 3 μg/mL Similar in vivo conversion is observed for select compounds listed in table 5 with whole blood drug concentrations being similar to that of their respective primary sulfonamide sodium salts, represented by formula I-a, administered at the same dose in aqueous 10 wt/vol % HPCD.

Male Sprague-Dawley rats = assay: Rat model of cisplatin induced neuropathy (SNCV); format: in vivo; conditions: for Cisplatin-induced loss in SNCV: 10-30 mg/kg, data not shown; for efficacy in cisplatin model of peripheral neuropathy: dose not stated
Method: (§5) Male Sprague-Dawley rats were administered 2.5 mg/kg cisplatin daily, for five consecutive days to achieve a final cumulative dose of 12.5 mg/kg. On the third day following the final cisplatin injection, animals received compounds SC at concentrations of (3, 10, and 30 mg/kg). Dosing continued Monday through Friday for three consecutive weeks. The effect of cisplatin on peripheral nerve function, and the ability of the compounds to attenuate the cisplatin effect were determined after three weeks of drug treatment by measuring the sensory nerve conduction velocity (SNCV) in the caudal nerve of the tail. Stimulating electrodes were used to deliver 2 mA pulses once per second for 1.5 min. The resulting compound sensory nerve action potentials were averaged, and the mean response onset time was determined from the averaged response. Two mean response times were determined, the second being 20 mm distal from the first. The difference in onset time between the two recordings was determined and used to calculate the conductance velocity.
Male Sprague-Dawley rats (weighing 200-225 g on arrival) were intraperitoneally administered 2.5 mg/kg cisplatin daily, for five consecutive days to achieve a final cumulative dose of 12.5 mg/kg. On the third day following the final cisplatin injection, animals received compounds SC at concentrations of (3, 10, and 30 mg/kg). Dosing continued Monday through Friday for three consecutive weeks.
as §5, with “The” for “Male Sprague-Dawley rats were administered 2.5 mg/kg cisplatin daily, for five consecutive days to achieve a final cumulative dose of 12.5 mg/kg. On the third day following the final cisplatin injection, animals received compounds SC at concentrations of (3, 10, and 30 mg/kg). Dosing continued Monday through Friday for three consecutive weeks. The”, “velocity. [formula]” for “velocity.”
The results of these experiments were combined, and ANOVA was performed, followed by a Fisher LSD test.

sciatic nerve = conditions: 1 and 10 mg/kg; cited from earlier work
RG neurons = conditions: intra-vitrial injection or SC 10 mg/kg, cited from earlier work
[7] = Pharmacokinetics of primary sulfonamides and Na salts (oral, SC); format: in vivo; conditions: for Cmax: aqueous 0.5 wt/vol % CMC/0.5 wt/vol % Tween 80 (semi-)suspension
Method: HPCD formulations of compounds represented by formula I also display improved pharmacokinetic properties as compared to compounds dissolved in water.
When compound 2 is administered at 10 mg/kg SC excellent plasma drug concentrations are observed_(Cmax=2.0 μg/mL, C1/2=0.8 hrs). […]

Sprague Dawley rats = conditions: 10 mg/kg, cited from earlier work
[8] = Taxol induced cell death, read-out: Taxol SCG IC50
[9] = anti-NGF induced cell death, read-out: anit-NGF SCG IC50
[10] = 250 μL 0.5 M PBS + 250 μL 10% HPCD + 500 μL 20% PEG 400
[11] = gavage 10 mg/kg, CMC/Tween 80 (semi-)suspension

- EC50 (MDAMB231 (breast)): 1 µM
- EC50 (Daoy (medulloblastoma)): 1 µM
- EC50 (15 N (neuroblastoma)): 0.75 µM
- IC50 (15N neuroblastoma cells): 2 µM
- EC50 (HCT116 (colon)): 1.5 µM
- Microsomal Stability (1 hr) (Microsomal stability): 60%
SMILES: NS(=O)(=O)c1nn2cc(-c3ccc(-c4cccc(C(F)(F)F)c4)cc3)nc2s1 [Compound 11]
- IC50 (SCG neurons; [8]): 2 µM
- fold increase in activity over compound 1 (15N neuroblastoma cells; 15N neuroblastoma): 10 fold

- IC50 (15N neuroblastoma cells): ~20 µM and 20 µM
- Microsomal Stability (1 hr) (Microsomal stability): 100%
SMILES: NS(=O)(=O)c1nn2cc(-c3ccc(N4CCOCC4)cc3)nc2s1 [Compound 5]
- IC50 (SCG neurons; [8]): 7 µM
- IC50 (SCG neurons; [9]): 22 µM

- IC50 (15N neuroblastoma cells): 3 µM
- Microsomal Stability (1 hr) (Microsomal stability): 0%
SMILES: NS(=O)(=O)c1nn2c(Br)c(-c3ccccc3)nc2s1 [5-Br-6-Ph-ITS, 5-Bromo-6-phenylmidazo[2,1-b]-1,3,4,-thiadiazole-2-sulfonamide, reference compound]
- degradation in microsomal fractions (Microsomal stability): rapidly degraded; also recorded: rapidly consumer by microsomal fractions

- EC50 (Du145 (prostate)): 8 µM
- EC50 (IMR32 (neuroblastoma)): 0.75 µM
- IC50 (15N neuroblastoma cells): 10 µM
- Microsomal Stability (1 hr) (Microsomal stability): 85%
SMILES: NS(=O)(=O)c1nn2cc(-c3ccc(Oc4ccc(Cl)cc4)cc3)nc2s1 [Compound 13]
- protection of SMI-32 labeled motor neurons [1]: > 80%
- IC50 (SCG neurons; [8]): 3 µM

- pH (pH of formulation): 7.4
- log P (log P): 2.6
- dissolution ([2]; 25 mg in 1 mL PEG 400/ethanol (50:50) + ethanolamine (20 μL)): clear solution
- clear solution concentration ([2]; 10 wt/vol % HPCD + 1 equiv of ethanolamine, dimethylaminoethanol or 4-aminopyridine): 5 to 10 mg/mL
- solubility [2, 10]: 25000 µg/mL
- solubility ([2]; 250 μL 0.5 M PBS + 750 μL 10% HPCD): 10000 µg/mL
- Solubility in 10 wt/vol HPCD ([2]; PBS/HPCD (25:75) solution): 10000 µg/mL (≈ 31 mM)
- conversion to compound 1 [3]: > 50%
- Stability [4, 10]: >4 weeks
- Stability ([4]; 1000 μL 0.5 M PBS): 1 to 2 days
- Stability in 10 wt/vol HPCD ([4]; PBS/HPCD (25:75) solution): >4 weeks
- conversion rate to primary sulfonamide [5]: 6%
- Cmax in plasma [6]: 20000 ng/mL
SMILES: CC(=O)NS(=O)(=O)c1nn2cc(-c3ccccc3)nc2s1 [Compound 15]

- Solubility 10 wt/vol % HPCD water [2]: 10000 µg/mL
- Stability of HPCD formulation [4]: >14 days
SMILES: COc1cccc(-c2ccc(-c3cn4nc(S([NH-])(=O)=O)sc4n3)cc2)c1.[Na+] [Compound 10]
- Cisplatin-induced loss in SNCV (Male Sprague-Dawley rats): protective
- efficacy in cisplatin model of peripheral neuropathy (Male Sprague-Dawley rats): efficacy
- functional recovery (toe spread) (sciatic nerve): improved recovery

- IC50 (15N neuroblastoma cells): 5 µM
- Microsomal Stability (1 hr) (Microsomal stability): 74%
SMILES: COc1cccc(-c2ccc(-c3cn4nc(S(N)(=O)=O)sc4n3)cc2)c1 [Compound 9]
- IC50 (SCG neurons; [8]): 3 µM

- EC50 (MDAMB231 (breast)): > 5 µM
- EC50 (Du145 (prostate)): 8 µM
- oral bioavailability [7, 11]: moderate
- Cmax ([7]; gavage 10 mg/kg): 200 ng/mL
- EC50 (Daoy (medulloblastoma)): > 5 µM
- EC50 (15 N (neuroblastoma)): 7 µM
- IC50 (15N neuroblastoma cells): ~20 µM and 20 µM
- EC50 (HCT116 (colon)): 12 µM
- Microsomal Stability (1 hr) (Microsomal stability): 90%
SMILES: NS(=O)(=O)c1nn2cc(-c3ccccc3)nc2s1 [Compound 1]
- histology of RG layer (RG neurons): healthy RG layers
- electro-retinogram (ERG) (RG neurons; versus vehicle): significant improvements
- IC50 (SCG neurons; [8]): 7 µM
- IC50 (SCG neurons; [9]): 22 µM
- IC50 (SCG neurons; cisplatin induced cell death, read-out: cisplatin SCG IC50): 5 µM
- IC50 (SCG neurons; vincristine induced cell death, read-out: vincristine SCG IC50): 10 µM
- weight gain (Sprague Dawley rats; Taxol 9 mg/kg twice weekly for 3 weeks): normal weight gain
- loss in foot pad contact (Sprague Dawley rats; Taxol alone 46% loss): 23%

- conversion rate to primary sulfonamide [5]: 12%
SMILES: CC(=O)NS(=O)(=O)c1nn2cc(-c3ccc(Oc4ccc(Cl)cc4)cc3)nc2s1 [Compound 44]

- C1/2 ([7]; SC 10 mg/kg): 0.8 h
- plasma Cmax ([7]; SC 10 mg/kg, 10 wt/vol % HPCD solution): 2000 ng/mL
- C1/2 [7, 11]: 0.9 h
- oral bioavailability [7, 11]: improved
- Cmax ([7]; gavage 10 mg/kg): 560 ng/mL
- Solubility 10 wt/vol % HPCD water [2]: 20000 µg/mL
- Solubility Water ([2]; Na salts in water): 10000 µg/mL
- Stability of HPCD formulation [4]: >14 days
SMILES: [NH-]S(=O)(=O)c1nn2cc(-c3ccccc3)nc2s1.[Na+] [Compound 2]
- Cisplatin-induced loss in SNCV (Male Sprague-Dawley rats): protective
- efficacy in cisplatin model of peripheral neuropathy (Male Sprague-Dawley rats): efficacy
- functional recovery (toe spread) (sciatic nerve): improved recovery
